The structures appear in SMILES notation.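 Following 48 hours of exposure in 96-well plates, responses at five concentrations were used to interpolate endpoints linearly. The concentration for 50% growth inhibition is given as GI50.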 Activity calls are given as the source filed them. Rule as the data show it: active = GI50 up to about 1.1 µM and inactive = higher.

A word on the GI50: it is the concentration that inhibits growth by half.

Test systems include COLO 205; DU-145; EKVX; HCT-15; HOP-92; Hs-578T; K562; LOX IMVI; MDA-MB-435; NCI-H226; OVCAR-4; OVCAR-5; RPMI-8226; SF-268; SF-539; SK-MEL-28; SK-MEL-5; SK-OV-3; SR; MDA-MB-231.
What all share (test): DTP human tumour cell line panel, 48 h

Regarding `C/N=C(\N)N/N=C(\C)c1ccc2oc3ccc(/C(C)=N/N/C(N)=N/C)cc3c2c1`, the GI50 was 3.27 µM (inactive) in the assay with COLO 205; 2.35 µM (inactive) in the assay with DU-145; 4.24 µM (inactive) in the assay with EKVX; > 23 µM in the assay with HCT-15; 2.07 µM (inactive) in the assay with HOP-92; 1.43 µM (inactive) in the assay with Hs-578T. In addition, the GI50 with K562 was 2.15 µM (inactive); with LOX IMVI, 2.56 µM (inactive); in the assay on MDA-MB-435, 2.92 µM (inactive); in the assay with NCI-H226, 2.08 µM (inactive); with OVCAR-4 it was 3.8 µM (inactive); in the assay on OVCAR-5, 9.35 µM (inactive). In addition, the GI50 in the assay on RPMI-8226 was 2.38 µM (inactive); in the assay on SF-268, 2.09 µM (inactive); in the assay with SF-539 it was 1.62 µM (inactive); in the assay with SK-MEL-28 it was 3.93 µM (inactive); with SK-MEL-5 it was 2.62 µM (inactive); in the assay with SK-OV-3, 3.16 µM (inactive). In the assay with SR, the GI50 is 1.51 µM (inactive).

On to `CCOC(=O)Cc1nnc2c(-c3ccccc3)nc3ccccc3n12`, for which the GI50 was > 100 µM (inactive) in the assay with COLO 205; 33 µM (inactive) with DU-145; 27.9 µM (inactive) in the assay with EKVX; 56.2 µM in the assay with HCT-15; 41.6 µM (inactive) in the assay on HOP-92; > 100 µM (inactive) with K562. Also, the GI50 with LOX IMVI was 53.7 µM (inactive); with MDA-MB-231 it was 19.2 µM (inactive); in the assay on MDA-MB-435 it was > 100 µM (inactive); in the assay with NCI-H226, > 100 µM (inactive); in the assay on OVCAR-4 it was > 100 µM (inactive); with OVCAR-5, 63.5 µM (inactive). For the same molecule, the GI50 is > 100 µM (inactive) in the assay with RPMI-8226; 20.6 µM (inactive) with SF-268; > 100 µM (inactive) with SF-539; > 100 µM (inactive) in the assay with SK-MEL-28; > 100 µM (inactive) in the assay with SK-MEL-5; 23.8 µM (inactive) with SK-OV-3. The GI50 in the assay with SR was > 100 µM (inactive).

`Cn1c(=O)c2ccccc2c2ccccc21`: the GI50 with COLO 205 is 34.3 µM (inactive); with DU-145, 47.4 µM (inactive); with EKVX, 18.8 µM (inactive); in the assay with HCT-15, 40 µM; in the assay on HOP-92, 48.3 µM (inactive); in the assay with Hs-578T, 44.5 µM (inactive). The GI50 in the assay with LOX IMVI is 64.4 µM (inactive); in the assay with MDA-MB-231, 56.6 µM (inactive); in the assay on MDA-MB-435 it was 56.8 µM (inactive); in the assay on NCI-H226, 32.3 µM (inactive); with OVCAR-4, 66.7 µM (inactive); in the assay with RPMI-8226, 37.8 µM (inactive). Moreover, the GI50 in the assay on SF-268 was 40.6 µM (inactive); in the assay with SF-539, 38 µM (inactive); in the assay with SK-MEL-28 it was 85.5 µM (inactive); with SK-MEL-5, 30.3 µM (inactive); in the assay on SK-OV-3, 27.5 µM (inactive).

As for `Oc1c(Cl)c(Cl)c(O)c(CCNc2ccc3ncccc3c2)c1Cl`, the GI50 was 6.55 µM (inactive) in the assay on COLO 205; 21.5 µM (inactive) in the assay on DU-145; 16.7 µM (inactive) in the assay with EKVX; 14.9 µM with HCT-15; 30.5 µM (inactive) in the assay on HOP-92; 5.04 µM (inactive) with Hs-578T. The GI50 is 3.47 µM (inactive) in the assay with K562; 5.2 µM (inactive) in the assay with MDA-MB-435; 79.6 µM (inactive) with OVCAR-4; 20.9 µM (inactive) in the assay with OVCAR-5; 5.13 µM (inactive) in the assay on SF-268; 12.5 µM (inactive) with SF-539. Moreover, the GI50 was 24.5 µM (inactive) in the assay with SK-MEL-28, 1.88 µM (inactive) in the assay on SK-MEL-5, 11.8 µM (inactive) in the assay on SK-OV-3 and 3.14 µM (inactive) in the assay on SR.

`CN1C(=O)C(c2c[nH]c3ccccc23)N(C)C(=O)C1c1c[nH]c2ccccc12` (configuration not stated): the GI50 with COLO 205 is > 100 µM (inactive); with DU-145, > 100 µM (inactive); in the assay with EKVX, > 100 µM (inactive); with HCT-15, > 100 µM; with HOP-92, 37.2 µM (inactive); in the assay with Hs-578T, 62.1 µM (inactive). For the same molecule, the GI50 was > 100 µM (inactive) in the assay with K562; > 100 µM (inactive) in the assay on LOX IMVI; 34.2 µM (inactive) with MDA-MB-231; > 100 µM (inactive) in the assay with MDA-MB-435; > 100 µM (inactive) with OVCAR-4; > 100 µM (inactive) with OVCAR-5. In addition, the GI50 is 86.3 µM (inactive) in the assay on SF-268; 86.5 µM (inactive) in the assay on SF-539; > 100 µM (inactive) with SK-MEL-28; > 100 µM (inactive) with SK-MEL-5; > 100 µM (inactive) in the assay on SK-OV-3.

Regarding `COc1cc(C(SCc2ccccc2)SCc2ccccc2)ccc1O`, the GI50 is > 10 µM (inactive) with COLO 205; > 10 µM (inactive) in the assay on DU-145; > 10 µM (inactive) with EKVX; > 10 µM with HCT-15; > 10 µM (inactive) in the assay with HOP-92; 6.12 µM (inactive) in the assay on Hs-578T. For the same molecule, the GI50 in the assay on K562, with LOX IMVI, in the assay on MDA-MB-231, in the assay on NCI-H226, in the assay on RPMI-8226 and in the assay on SF-268 was > 10 µM (inactive) each time. Besides, the GI50 in the assay with SF-539 was > 10 µM (inactive); in the assay with SK-MEL-28, > 10 µM (inactive); in the assay on SK-MEL-5 it was > 10 µM (inactive); in the assay on SK-OV-3 it was 4.22 µM (inactive); with SR, > 10 µM (inactive).

Turning to `Cc1ccccc1Nc1cn(CCOc2ccccc2)c(=O)n(CCOc2ccccc2)c1=O`, the GI50 is 96.2 µM (inactive) with COLO 205; > 100 µM (inactive) in the assay on DU-145; > 100 µM (inactive) in the assay with EKVX; > 100 µM in the assay with HCT-15; 19 µM (inactive) with HOP-92; > 100 µM (inactive) in the assay with Hs-578T. Besides, the GI50 in the assay on K562 is > 100 µM (inactive); in the assay with LOX IMVI, > 100 µM (inactive); in the assay on MDA-MB-435, > 100 µM (inactive); in the assay with OVCAR-4 it was 58.7 µM (inactive); in the assay on OVCAR-5, > 100 µM (inactive); in the assay with RPMI-8226, > 100 µM (inactive). Moreover, the GI50 with SF-268, in the assay on SK-MEL-28 and in the assay on SK-MEL-5 was > 100 µM (inactive) each time.

Regarding `O=C1c2ccccc2C(=O)c2c(NCC3CO3)cccc21` (configuration not stated), the GI50 was > 53.1 µM (inactive) in the assay on COLO 205; 17.5 µM (inactive) in the assay with EKVX; 7.23 µM in the assay on HCT-15; 94.4 µM (inactive) with HOP-92; 38.4 µM (inactive) in the assay with Hs-578T; 6.62 µM (inactive) in the assay with K562. Besides, the GI50 was 1.38 µM (inactive) with LOX IMVI; 15.2 µM (inactive) in the assay on MDA-MB-231; 7.59 µM (inactive) with MDA-MB-435; > 100 µM (inactive) with NCI-H226; > 86.1 µM (inactive) in the assay with OVCAR-4; > 71.3 µM (inactive) in the assay on OVCAR-5. In addition, the GI50 in the assay on RPMI-8226 is 33.2 µM (inactive); in the assay on SF-268 it was 7.5 µM (inactive); in the assay with SF-539 it was > 45.3 µM (inactive); with SK-MEL-28, > 41.7 µM (inactive); in the assay with SK-MEL-5, 22.6 µM (inactive); with SK-OV-3, > 95.7 µM (inactive).

For `O=S(=O)(N/C(=N\O)Nc1ccc(Cl)cc1)c1ccc(S(=O)(=O)c2ccccc2)s1`, the GI50 in the assay with COLO 205 is 15.7 µM (inactive); in the assay on DU-145, 19.5 µM (inactive); with EKVX, 18.8 µM (inactive); in the assay with HCT-15 it was 28.1 µM; in the assay on HOP-92, 6.92 µM (inactive); with Hs-578T it was 28.6 µM (inactive). The GI50 was 16.6 µM (inactive) in the assay on K562; 15.5 µM (inactive) in the assay on LOX IMVI; 22.3 µM (inactive) in the assay on MDA-MB-231; 17 µM (inactive) in the assay on MDA-MB-435; 14.6 µM (inactive) in the assay on NCI-H226; 14.1 µM (inactive) in the assay with OVCAR-4. The GI50 in the assay with OVCAR-5 was 24.3 µM (inactive); in the assay with RPMI-8226, 13.6 µM (inactive); in the assay on SF-268, 23.1 µM (inactive); with SF-539, 24.5 µM (inactive); in the assay on SK-MEL-28, 17.7 µM (inactive); in the assay with SK-MEL-5, 11.2 µM (inactive).

Take `COC(=O)CC1C(COC(C)=O)OC(n2cc(C)c(=O)[nH]c2=O)C1OC(C)=O` (configuration not stated): the GI50 in the assay with COLO 205 is > 100 µM (inactive); with DU-145, > 100 µM (inactive); in the assay with EKVX, > 100 µM (inactive); in the assay on HCT-15 it was > 100 µM; with HOP-92, > 100 µM (inactive); with Hs-578T, 4.73 µM (inactive). Besides, the GI50 with LOX IMVI, in the assay on MDA-MB-231, in the assay with MDA-MB-435, in the assay on NCI-H226, in the assay with OVCAR-4 and in the assay on OVCAR-5 was > 100 µM (inactive) throughout. In addition, the GI50 in the assay with RPMI-8226, with SF-268, in the assay with SF-539, in the assay with SK-MEL-28, in the assay on SK-MEL-5 and in the assay with SK-OV-3 was > 100 µM (inactive) throughout.

With `CCN(CC)C(=C(C(Cl)=C(Cl)Cl)[N+](=O)[O-])N(CC)CC`, the GI50 with COLO 205 is > 100 µM (inactive); with DU-145, 62.4 µM (inactive); in the assay on EKVX it was > 100 µM (inactive); in the assay with HCT-15, 62.2 µM; in the assay on Hs-578T, 24.7 µM (inactive); in the assay with K562, 46.5 µM (inactive). Also, the GI50 is 41 µM (inactive) in the assay with LOX IMVI; > 100 µM (inactive) with MDA-MB-231; > 100 µM (inactive) with NCI-H226; > 100 µM (inactive) with OVCAR-4; > 100 µM (inactive) with OVCAR-5; 42.3 µM (inactive) in the assay on RPMI-8226. The GI50 is 41 µM (inactive) in the assay with SF-268; > 100 µM (inactive) in the assay with SF-539; 49.1 µM (inactive) in the assay on SK-MEL-28; > 100 µM (inactive) in the assay with SK-MEL-5; > 100 µM (inactive) with SK-OV-3; 33.7 µM (inactive) in the assay with SR.

The record behind these values is ChEMBL document CHEMBL1201862, “PubChem BioAssay data set” (2004).
